# According to patent US8999959B2, “Drug for treating liver lesions caused by the action of chemical or biological agents” (priority 2010, dated 2015):
# What was measured:
# [1] = test system: liver cirrhosis induced by carbon tetrachloride (CCl4); assay: Treatment of liver cirrhosis (CCl4) in rats by oral administration; type: in vivo; design: Relative liver mass: unit not given here
# Experimental: Treatment of liver cirrhosis by oral administration of the inventive substance. Liver cirrhosis was induced in rats by means of intragastric administration of 50% solution of carbon tetrachloride (CCl4) in olive oil in the amount of 1 ml/kg during 10 days. After 20 days the presence of liver cirrhosis was confirmed by morphological image of liver in all laboratory animals. Starting from that day, for 10 days the inventive agent was administered to the laboratory animals by way of treatment, once every 24 hours, in varying amounts in order to refine the optimal treatment procedure.
# The effectiveness of the inventive preparation was evaluated in comparison with Essentiale by several groups of indices: morphometric, biochemical and functional. First of all the clinical performance of intoxication was observed. The clinical performance in the group of rats that received CCl4 with no treatment was characterized by hypodynamia, dormancy, disheveled hair and untidy appearance of the animals. They gained weight less well than the other rats. In this group by day 15 of the study 80% of the animals were dead, in the group that received Essentiale—60%, in the group that received the inventive agent—40%.
# Quantitative assessment of the preparation's effectiveness in treatment of toxic hepatitis was performed using a point rating system, taking into account the marker indices: the largest score for each index was assigned to the group with the more pronounced positive effect of the preparation.
# [2] = test system: toxic hepatitis caused by carbon tetrachloride (CCl4); assay: Treatment of acute toxic hepatitis (CCl4) in rats by parenteral (intravenous) administration; type: in vivo; design: Total bilirubin, serum: unit not given here
# Experimental: Treatment of toxic hepatitis by means of parenteral administration of the inventive substance. Acute toxic hepatitis was induced in rats by means of intragastric administration of 50% solution of carbon tetrachloride (CCl4) in olive oil in the amount of 1 ml/kg during 6 days. After 10 days the presence of toxic hepatitis was confirmed by morphological image of liver in all experimental animals. Starting from that day, for 10 days the preparations were administered to the experimental animals by way of treatment, once every 24 hours.
# Essentiale was used as the preparation for comparison, which was administered in ampoules in the amount of 1 ml/100 g intravenously, slowly, into the caudal vein. The inventive substance was also administered intravenously in varying amounts in order to refine the treatment procedure. The effectiveness of treatment was evaluated on the basis of clinical performance, body weight dynamics, relative liver mass, the contents of bilirubin, transaminases, phosphatases, ceruloplasmin, total protein, blood serum lipids, the contents of glycogen, glutathione, SH-groups, stress tests (hexenal test, bromsulphalein test) and the histological pattern of liver.
# Weight dynamics of the rats were determined by means of scales VLR-500. Liver of the animals was weighted using electronic scales 1602 MP by “Sartorius”. The contents of reduced glutathione in liver and the content of sulfhydryl groups in blood serum was evaluated by amperometric titration according to Rubinnaya N. S. (Stalnaya I.D., Garishvili T. G Modern methods in biochemistry. Moscow, Meditsina, 1977, pp. 66-68), the contents of glycogen—by the Samodi method (Stalnaya I.D., Garishvili T. G Modern methods in biochemistry. Moscow, Meditsina, 1977, pp. 66-68). The antitoxic function of liver was evaluated by the duration of hexenal sleep (70 mg per 1 kg of body weight), and the excretory function of liver was assessed by means of bromsulphalein test.
# Blood for biochemical tests was obtained by means of paracentesis of the caudal vein of rats.
# The activity of ALT, AST, ALP, ACP, LDH, thymol test, the contents of total protein and lipids, cholesterol, blood serum bilirubin were assessed by means of sets Bio-Lat-Test manufactured by a Czech company “Lachema”, the contents of ceruloplasmin were assessed according to Babenko (Laboratory research methods in clinical practice. Reference book, under the editorship of V. V. Menshikov. Moscow, Russia—Meditsina, 1987, p. 365). The animals were killed by decapitation, subjected to anatomicopathological autopsy and histological study. The experimental and reference rats were killed by means of decapitation. The material was fixed in 10-15% formaldehyde and embedded in paraffin. Paraffin slices were stained by means of hematoxylin and eosin. Fixed frozen slices were stained for fat by means of Sudan III.
# Statistical processing of the experiments' results was done according to Student's T-distribution and F-distribution.
# The effectiveness of preparations was assessed according to several groups of indices: morphometric, biochemical and functional. First of all the clinical performance of intoxication was observed. The clinical performance in the group of rats that received CCl4 with no treatment was characterized by hypodynamia, dormancy, disheveled hair and untidy appearance of the animals. They gained weight less well than the other rats. In this group, by day 15 of the study 80% of animals were dead.
# [3] = point rating system, larger score = more pronounced positive effect, inventive substance 180 mg/kg, Essentiale 100 mg/kg
# [4] = rats, CCl4 intoxication (cirrhosis), after 10 days oral treatment, inventive substance 90 mg/kg, Essentiale 100 mg/kg, M ± m
# [5] = rats, CCl4 liver cirrhosis, oral treatment
# [6] = CCl4 intoxication, after 10 days i.v. treatment, inventive substance 25 mg/kg, Essentiale 1 ml/100 g, M ± m
smiles,measurement,setting,value
"O=Nc1c(O)n(-c2ccc(Br)cc2)c(=O)[nH]c1=O [The inventive substance, 1-(4-bromophenyl)-6-hydroxy-5-nitroso-1,2,3,4-tetrahydropyrimidine-2.4-dione]","Quantitative assessment of effectiveness, ALP score",[1]; [3],11 points
same,"Quantitative assessment of effectiveness, ALT score",[1]; [3],7 points
same,"Quantitative assessment of effectiveness, AST score",[1]; [3],7 points
same,"Quantitative assessment of effectiveness, Hexenal sleep score",[1]; [3],10 points
same,"Quantitative assessment of effectiveness, Weight coefficient score",[1]; [3],10 points
same,Body weight,"[1]; rats, CCl4 intoxication (cirrhosis), after 10 days oral treatment once every 24 h, inventive substance 90 mg/kg, Essentiale 100 mg/kg, M ± m",174 ± 7 g
same,"Alanine aminotransferase, serum",[1]; [4],0.85 ± 0.08 µmol/s/L
same,"Alkaline phosphatase, serum",[1]; [4],811 ± 26.3 nmol/s/L
same,"Aspartate aminotransferase, serum",[1]; [4],0.32 ± 0.04 µmol/s/L
same,Hexenal sleep,[1]; [4],31.0 ± 2.0 min
same,Relative liver mass,[1]; [4],27.87 ± 1.03
same,"degenerative changes of the liver (histology, in words)","[1]; rats, CCl4 liver cirrhosis, after oral treatment, majority of rats",no degenerative changes of the liver
same,condition and function of liver (in words),[1]; [5],virtually completely and reliably normalized the condition and function of liver
same,"manifestations of intoxication (clinical performance, in words)",[1]; [5],reduced or almost completely arrested the manifestations of intoxication
same,animals dead by day 15 of the study,"[1]; rats, CCl4 liver cirrhosis, oral treatment, untreated CCl4 group 80%",40%
same,"Quantitative assessment of effectiveness, Total points","[1]; sum of marker index scores, inventive substance 180 mg/kg, Essentiale 100 mg/kg",45 points
same,Body weight,"[2]; CCl4 intoxication, after 10 days i.v. treatment once every 24 h, inventive substance 25 mg/kg, Essentiale 1 ml/100 g, M ± m",174 ± 8 g
same,Hexenal sleep,"[2]; CCl4 intoxication, after 10 days i.v. treatment, hexenal 70 mg/kg, inventive substance 25 mg/kg, Essentiale 1 ml/100 g, M ± m",31.0 ± 2.0 min
same,ACP,[2]; [6],0.75 ± 0.10 μkat/l
same,"Alanine aminotransferase, serum",[2]; [6],0.85 ± 0.08 µmol/s/L
same,"Alkaline phosphatase, serum",[2]; [6],811 ± 26.3 nmol/s/L
same,"Aspartate aminotransferase, serum",[2]; [6],0.32 ± 0.04 µmol/s/L
same,"Ceruloplasmin, serum",[2]; [6],477 ± 44 mg/L
same,"Cholesterol, serum",[2]; [6],1.70 ± 0.19 mmol/L
same,"Concentration of bromsulphalein at 10th minute after administrating the serum, extinction,",[2]; [6],13.5 ± 1.6 extinction
same,"Glycogen, liver",[2]; [6],2691 ± 191 mg %
same,LDH,[2]; [6],5.49 ± 0.45 mmol/h/L
same,"Reduced glutathione, liver",[2]; [6],164 ± 10 mg %
same,Relative liver mass,[2]; [6],27.87 ± 1.03 g/kg
same,"SH-groups, serum",[2]; [6],1554 ± 72 mg %
same,Thymol test,[2]; [6],1.18 ± 0.17 turbidity units
same,"Total bilirubin, serum",[2]; [6],3.8 ± 0.5
same,"Total lipids, serum",[2]; [6],3.4 ± 0.09 g/L
same,"Total protein, serum",[2]; [6],69 ± 6 g/L
same,"microvesicular focal steatosis (liver histology, in words)","[2]; CCl4 toxic hepatitis, after i.v. treatment",absence of microvesicular focal steatosis
same,percentage of deaths in the groups by the end of the treatment,"[2]; CCl4 toxic hepatitis, day 20, 40% dead by start of treatment (day 10), inventive substance 25 mg/kg i.v., Essentiale 1 ml/100 g i.v.",40%
same,"manifestations of intoxication (clinical performance, in words)","[2]; CCl4 toxic hepatitis, i.v. treatment",reduced or almost completely arrested the manifestations of intoxication
